Measurements from patent publication US20070055448A1, “Primary rat hepatocyte toxicity modeling” (Gene Logic Inc., priority 2003, published 2007).

Experiments:
[1] = AY-25329 repeated-dose rat study: serum chemistry and light microscopy; assay type: in vivo, rats
From the text: The present inventors have noted indications of liver and renal effects of AY-25329 by changes in serum chemistry. […] Most of these markers of renal and liver dysfunction remained altered throughout the 14 day study period.

[2] = 0.1, 1, 2, 3, 4 mL/kg ip; 2.5 mL/kg po; peak within 48 hours post dose; cited from earlier work
[3] = dogs, after treatment; cited from earlier work
[4] = 180 reported cases; cited from earlier work
[5] = oral doses; cited from earlier work
[6] = Lovastatin rat dosing study: liver tissue examination; assay type: in vivo, rats
[7] = human, in vivo; cited from earlier work

SMILES: O=C(CCN1CCN2CCCC2C1)N1c2ccccc2Sc2ccc(Cl)cc21 (stereo not shown) [AY-25329]
- histopathology of kidney and liver ([1]; 14 days of repeated dosing, 250 mg/kg/day): nephrosis and alterations in the peripheral lobes of the liver and in the cytoplasm of hepatocytes were evident
- light microscopic analysis of the liver ([1]; as early as 6 and 24 hours): increased number of hepatocytic mitotic figures and decreased glycogen content
- serum levels of creatinine, BUN, ALT, triglycerides and cholesterol ([1]; as early as 6 hours after the first dose, most markers remained altered throughout the 14 day study period): statistically significant increases

SMILES: ClC(Cl)(Cl)Cl [CCl4, carbon tetrachloride]
- peak increase of ALT and AST levels [2]: 5-10 fold

SMILES: Cl.Nc1nc2c(Cc3ccsc3)c[nH]c2c(=O)[nH]1.O [CI-1000, 4H-pyrrolo:3,2-d:pyrimidin-4-one, 2-amino-3,5-dihydro-7-(3-thienylmethyl)-monohydrochloride monohydrate]
- serum ALT levels [3]: increased serum ALT levels

SMILES: O=C(O)Cc1ccccc1Nc1c(Cl)cccc1Cl [diclofenac]
- jaundice among symptomatic patients [4]: 75 % of the symptomatic patients

SMILES: CC[C@H](C)C(=O)O[C@H]1C[C@@H](C)C=C2C=C[C@H](C)[C@H](CC[C@@H]3C[C@@H](O)CC(=O)O3)[C@H]21 [lovastatin]
- metabolites excreted in the urine [5]: less than 13%
- effects in liver tissue ([6]; 9 or 90 mg/kg twice a day, after 6 or after 24 hours): no effects were noted
- liver cell changes ([6]; after 14 days of treatment at the higher dosage (90 mg/kg twice a day)): abnormal vacuolization of the cytoplasm

SMILES: CCCC(CCC)C(=O)O [valproate, n-dipropylacetic acid]
- patients with elevated levels of hepatic enzymes [7]: about 40 % of patients
